This is an account of results in ChEMBL document CHEMBL3102830, “Involvement of apoptosis and autophagy in the death of RPMI 8226 multiple myeloma cells by two enantiomeric sigma receptor ligands” (Bioorg Med Chem, 2014).

Molecules are shown by their SMILES. The source made the active and inactive calls. The calls are words filed in the database; no cut-off is given here.

The subject of assay [1] is RPMI-8226. The experiment in a line: Selectivity ratio of Ki for sigma-2 receptor in human RT4 cell homogenates to Ki for sigma-1 receptor in human RPMI8226 cells. Format: cell-based.
Assay [2] relates to RPMI-8226. The experiment in a line: Induction of apoptosis in human RPMI8226 cells assessed as early apoptotic cells at 36 uM after 48 hrs by annexin V-FITC/propidium iodide staining-based flow cytometric analysis in presence of wortmannin. The format is functional, cell-based.
Assay [3] has as its target Sigma non-opioid intracellular receptor 1 (Homo sapiens, UniProt Q99720). The experiment in a line: Displacement of [3H]-(+)-pentazocine from sigma-1 receptor in human RPMI8226 cells. Format: cell-based, RPMI-8226.
Assay [4] deals with RPMI-8226. The experiment in a line: Induction of apoptosis in human RPMI8226 cells at 36 uM after 48 hrs by annexin V-FITC/propidium iodide staining-based flow cytometric analysis in presence of caspase inhibitor z-VAD-FMK. The format is functional, cell-based.
Assay [5] relates to RPMI-8226. The experiment in a line: Induction of apoptosis in human RPMI8226 cells assessed as increase in apoptotic cells at 36 uM after 24 to 48 hrs by annexin V-FITC/propidium iodide staining-based flow cytometric analysis. Format: functional, cell-based.
For assay [6], the system named is RPMI-8226. Kind of assay: Induction of apoptosis in human RPMI8226 cells assessed as early/late apoptotic cells at 36 uM after 48 hrs by annexin V/propidium iodide staining-based flow cytometric analysis in presence of alpha-tocopherol. Format: functional, cell-based.
Assay [7] has as its system RPMI-8226. The experiment in a line: Induction of apoptosis in human RPMI8226 cells assessed as caspase-8 activation at 36 uM by flow cytometric analysis in presence of FITC-IETD-FMK. The format is functional, cell-based. The settings on record: TDE = time-dependent effect.
The test system of assay [8] is RPMI-8226. Kind of assay: Induction of apoptosis in human RPMI8226 cells assessed as caspase-9 activation at 36 uM by flow cytometric analysis in presence of […]. The format is functional, cell-based. As to conditions: TDE = time-dependent effect.
The test system of assay [9] is RPMI-8226. Kind of assay: Induction of apoptosis in human RPMI8226 cells assessed as decrease in Bax protein expression at 36 uM by Western blotting analysis. As to conditions: TDE = time-dependent effect. Format: functional, cell-based.
Assay [10] concerns RPMI-8226. The experiment in a line: Cytotoxicity against human RPMI8226 cells assessed as cell viability after 72 hrs by MTT assay. The format is functional, cell-based.
Assay [11] deals with Sigma non-opioid intracellular receptor 1 (Cavia porcellus, UniProt Q60492). The experiment in a line: Displacement of [3H]-(+)-pentazocine from sigma-1 receptor in guinea pig brain homogenates. The format is tissue-based.
For assay [12], the system named is RPMI-8226. Kind of assay: Induction of apoptosis in human RPMI8226 cells assessed as dead cells at 36 uM after 48 hrs by annexin V-FITC/propidium iodide staining-based flow cytometric analysis in presence of apoptosis inhibitor 2,2'-methylenebis(1,3-cyclohexandione) relative to control. Format: functional.
The subject of assay [13] is RPMI-8226. The experiment in a line: Induction of apoptosis in human RPMI8226 cells assessed as dead cells at 36 uM after 48 hrs by annexin V-FITC/propidium iodide staining-based flow cytometric analysis relative to control. Format: functional.
Assay [14] relates to RPMI-8226. Kind of assay: Induction of apoptosis in human RPMI8226 cells at 36 uM after 6 hrs by annexin V-FITC/propidium iodide staining-based flow cytometric analysis. The format is functional, cell-based.
The subject of assay [15] is RPMI-8226. Kind of assay: Induction of apoptosis in human RPMI8226 cells assessed as chromatin condensation at 36 uM after 24 to 48 hrs by DAPI staining-based fluorescence microscopic analysis. The format is functional, cell-based.
Assay [16] has as its system RPMI-8226. The experiment in a line: Induction of apoptosis in human RPMI8226 cells assessed as caspase-8 cleavage at 36 uM after 6 to 96 hrs by Western blotting analysis. Format: functional, cell-based.
For assay [17], the system named is RPMI-8226. Kind of assay: Induction of autophagy in human RPMI8226 cells assessed as p62 protein expression at 36 uM after 6 to 96 hrs by Western blotting analysis. The format is functional, cell-based.
A short description of assay [18]: Selectivity ratio of Ki for sigma-2 receptor in rat liver homogenates to Ki for sigma-1 receptor in guinea pig brain homogenates. Format: tissue-based.
The test system of assay [19] is RPMI-8226. Kind of assay: Induction of autophagy in human RPMI8226 cells assessed as […] at 36 uM by Western blotting analysis. Format: functional, cell-based. The settings on record: TDE = time-dependent effect.
Assay [20] concerns RPMI-8226. The experiment in a line: Induction of apoptosis in human RPMI8226 cells assessed as early apoptotic cells at 36 uM after 24 hrs by annexin V/propidium iodide staining-based flow cytometric analysis. The format is functional, cell-based.
For assay [21], the system named is RPMI-8226. Kind of assay: Induction of apoptosis in human RPMI8226 cells assessed as increase in Bcl2 protein expression at 36 uM by Western blotting analysis. The format is functional, cell-based. The settings on record: TDE = time-dependent effect.
Assay [22] has as its system RPMI-8226. Kind of assay: Induction of apoptosis in human RPMI8226 cells assessed as PARP-1 cleavage at 36 uM after 6 hrs by Western blotting analysis. Format: functional, cell-based.
A short description of assay [23]: Displacement of [3H]-DTG from sigma-2 receptor in human RT4 cell homogenates in presence of (+)-pentazocine. The format is tissue-based. As to conditions: rt-4.
In assay [24] the test system is RPMI-8226. The experiment in a line: Induction of apoptosis in human RPMI8226 cells assessed as caspase-9 protein expression at 36 uM after 6 to 96 hrs by Western blotting analysis. The format is functional, cell-based.
For assay [25], the system named is RPMI-8226. Kind of assay: Induction of apoptosis in human RPMI8226 cells assessed as decrease in Bid protein expression at 36 uM up to 96 hrs by Western blotting analysis. Format: functional, cell-based.
In assay [26] the test system is RPMI-8226. Kind of assay: Induction of apoptosis in human RPMI8226 cells assessed as early apoptotic cells at 36 uM after 24 hrs by annexin V/propidium iodide staining-based flow cytometric analysis in presence of alpha-tocopherol. Format: functional, cell-based.
In assay [27] the test system is RPMI-8226. Kind of assay: Induction of apoptosis in human RPMI8226 cells assessed as caspase-3 activation at 36 uM by flow cytometric analysis in presence of […]. Format: functional, cell-based. As to conditions: TDE = time-dependent effect.
Assay [28] relates to HL-60. Kind of assay: Cytotoxicity against human HL60 cells assessed as cell viability at 20 uM after 72 hrs by MTT assay. The format is functional, cell-based.
Assay [29] deals with RPMI-8226. Kind of assay: Induction of apoptosis in human RPMI8226 cells assessed as early apoptotic cells at 36 uM after 48 hrs by annexin V/propidium iodide staining-based flow cytometric analysis. Format: functional, cell-based.
Assay [30] deals with RPMI-8226. Kind of assay: Induction of apoptosis in human RPMI8226 cells assessed as early apoptotic cells at 36 uM after 48 hrs by annexin V-FITC/propidium iodide staining-based flow cytometric analysis. The format is functional, cell-based.
Assay [31] can be described thus: Displacement of [3H]-DTG from sigma-2 receptor in rat liver homogenates in presence of (+)-pentazocine. The format is tissue-based.

Sigma non-opioid intracellular receptor 1 (Cavia porcellus, UniProt Q60492), sequence (Q60492 whole entry): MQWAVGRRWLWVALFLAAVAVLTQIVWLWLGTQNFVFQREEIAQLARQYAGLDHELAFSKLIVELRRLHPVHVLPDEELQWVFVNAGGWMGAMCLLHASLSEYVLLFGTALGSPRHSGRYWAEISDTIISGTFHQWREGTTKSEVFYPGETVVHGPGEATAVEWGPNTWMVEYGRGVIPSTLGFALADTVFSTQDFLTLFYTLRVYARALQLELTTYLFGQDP
Sigma non-opioid intracellular receptor 1 (Homo sapiens, UniProt Q99720), sequence (Q99720 whole entry): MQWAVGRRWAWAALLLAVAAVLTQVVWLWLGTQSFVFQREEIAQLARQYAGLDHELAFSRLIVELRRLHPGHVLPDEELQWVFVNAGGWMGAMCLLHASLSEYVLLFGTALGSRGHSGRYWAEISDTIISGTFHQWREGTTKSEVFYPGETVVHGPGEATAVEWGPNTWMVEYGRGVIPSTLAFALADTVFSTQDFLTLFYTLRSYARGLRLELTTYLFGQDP

Regarding `OCC[C@H]1CN(CC2CCCCC2)CCN1Cc1ccc(-c2ccccc2)cc1`, the Ratio Ki amounted to 1.3 in [1] and 20.8 in assay [18]. Further, the result in assay [2], in [4], in [5], in assay [15], in assay [16] and in assay [20] was Active. Moreover, the outcome in assay [22], in [26] and in assay [30] was Active. The inhibitory constant (Ki) amounted to 34 nM in [3], 3.5 nM in assay [11], 43 nM in assay [23] and 73 nM in assay [31]. Further, the outcome in [6], in assay [14], in [17], in [24], in assay [25] and in assay [28] was inactive. Moreover, in assay [29], the result was inactive. Besides, the Activity entry was “tde” in [7]; “tde” in [8]; “tde” in [9]; “Dose-dependent effect” in [10]; 21% in assay [12]; 18% in assay [13]. The Activity entry in [19], in assay [21] and in assay [27] was “tde” in each case. Besides, in [10] (RPMI-8226, 72 h), the IC50 stood at 21300 nM.
Turning to `COc1ccc(CN2CCN(Cc3ccccc3)CC2)cc1`, the Ki in assay [31] was 161 nM.
